Data published in patent US20220324835A1 (Nurix Therapeutics, Inc., priority 2018, published 2022).

Assays:
[1] = target: T1, Cbl-b (Homo sapiens, UniProt Q13191); experiment: Cbl-b inhibition assay (Cbl-b activity assay, FRET, Biological Example 1; 100 mM NaCl, 60 nM Src kinase); assay type: biochemical; settings: upper bound stated in text lists; read-out: IC50 values in the Cbl-b inhibition assay of Biological Example 1
Outline: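 Inhibitor activity is measured as reduced terbium-to-fluorescein FRET between streptavidin-terbium on biotinylated Cbl-b and Bodipy-fluorescein ubiquitin carried by an irreversible UbcH5B-Ub conjugate, binding of which depends on Src phosphorylation of Cbl-b.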

[2] = system: T-cell; experiment: IL-2 secretion from T-cells co-stimulated with anti-CD3 and anti-CD28 antibody (Biological Example 2); assay type: cell-based, human; settings: Homo sapiens, T-cell, read-out: IL-2 secretion Anti-CD3/Anti-CD28 stimulation; for fold induction at 0.3 µM: 0.3 μM Cbl-b inhibitor; for fold induction at 1 µM: 1 μM Cbl-b inhibitor; for fold induction at 4 µM: 4 μM Cbl-b inhibitor
Outline: (§1)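 Values are fold-change over baseline: readings (IL-2 release, CD25 staining) from inhibitor-treated T-cells divided against untreated cells […]. No detailed procedure stated.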

[3] = system: T-cell; experiment: IL-2 secretion from T-cells stimulated with anti-CD3 antibody alone (Biological Example 2); assay type: cell-based, human; settings: T-cell, read-out: IL-2 secretion Anti-CD3 stimulation; for fold induction at 1 µM: 1 μM Cbl-b inhibitor; for fold induction at 8 µM: 8 μM Cbl-b inhibitor
[4] = system: T-cell; experiment: CD25 cell surface staining on T-cells co-stimulated with anti-CD3 and anti-CD28 antibody (Biological Example 2); assay type: cell-based, human; settings: Homo sapiens, T-cell, read-out: CD25 staining Anti-CD3/Anti-CD28 stimulation; for fold induction at 0.3 µM: 0.3 μM Cbl-b inhibitor; for fold induction at 1 µM: 1 μM Cbl-b inhibitor; for fold induction at 4 µM: 4 μM Cbl-b inhibitor
Outline: as §1

[5] = system: T-cell; experiment: CD25 cell surface staining on T-cells stimulated with anti-CD3 antibody alone (Biological Example 2); assay type: cell-based, human; settings: T-cell, read-out: CD25 staining Anti-CD3 stimulation; for fold induction at 1 µM: 1 μM Cbl-b inhibitor; for fold induction at 8 µM: 8 μM Cbl-b inhibitor
[6] = target: T1, Cbl-b; experiment: Cbl-b activity assay (Cbl-b inhibition assay), TR-FRET of Cbl-b interaction with UbcH5B-Ub; assay type: biochemical
Outline: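 Compound-treated Cbl-b was incubated 1.5 h with Src kinase (60 nM final; 30 nM for asterisked values, which also used 50 mM instead of 100 mM NaCl), 1 mM ATP and 5 mM MgCl2. Binding to fluorescent Ub-loaded UbcH5B (C85K mutant) was then read by TR-FRET after 1 h more.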

[7] = fold change over baseline (anti-CD3/anti-CD28 stimulated T-cells without inhibitor)
[8] = Homo sapiens, fold change over baseline (anti-CD3/anti-CD28 stimulated T-cells without inhibitor)
[9] = assay buffer with 100 mM NaCl, 60 nM Src kinase, read-out: Cbl-b activity IC50
[10] = fold change over baseline, primary human total T-cells

T1 sequence (Q13191 36-427): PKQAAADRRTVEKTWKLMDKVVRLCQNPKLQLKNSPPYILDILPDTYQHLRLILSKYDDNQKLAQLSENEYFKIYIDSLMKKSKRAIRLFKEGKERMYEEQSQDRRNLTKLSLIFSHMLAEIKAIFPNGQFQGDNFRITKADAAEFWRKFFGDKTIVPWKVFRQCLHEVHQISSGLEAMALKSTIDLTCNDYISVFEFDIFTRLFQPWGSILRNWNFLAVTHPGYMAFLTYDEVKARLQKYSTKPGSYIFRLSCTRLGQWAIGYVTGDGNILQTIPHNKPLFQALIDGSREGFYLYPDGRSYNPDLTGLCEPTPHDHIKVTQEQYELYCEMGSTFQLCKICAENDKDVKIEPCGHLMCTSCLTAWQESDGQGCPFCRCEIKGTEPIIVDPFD

Row | Structure (SMILES) | IC50 [1] [nM] | fold induction at 0.3 µM [2, 7] | fold induction at 1 µM [2, 7] | fold induction at 1 µM [3, 8] | fold induction at 0.3 µM [4, 7] | fold induction at 1 µM [4, 7] | fold induction at 1 µM [5, 8] | IC50 [6, 9] [µM] | fold induction at 0.3 µM [2, 10] | fold induction at 1 µM [2, 10] | fold induction at 4 µM [2, 10] | fold induction at 1 µM [3, 10] | fold induction at 8 µM [3, 10] | fold induction at 0.3 µM [4, 10] | fold induction at 1 µM [4, 10] | fold induction at 4 µM [4, 10] | fold induction at 1 µM [5, 10] | fold induction at 8 µM [5, 10] | IC50 ([6]; * assay buffer containing 50 mM NaCl instead of 100 mM NaCl and 30 nM Src kinase instead of 60 nM, read-out: Cbl-b activity IC50 (μM)*) [µM]
1 | CC1CCN(Cc2cc3c(c(C(F)(F)F)c2)CN(c2cccc(C4(Cc5nncn5C)COC4)c2)C3=O)CC1(F)F (stereo not drawn) [Example 635, 6-((3,3-difluoro-4-methylpiperidin-1-yl)methyl)-2-(3-(3-((4-methyl-4H-1,2,4-triazol-3-yl)methyl)oxetan-3-yl)phenyl)-4-(trifluoromethyl)isoindolin-1-one] | ≤ 100 | > 7.5 | > 7.5 | > 0.201 | 1.31 to 1.5 | 1.31 to 1.5 | > 1 | < 0.1 |  |  |  |  |  |  |  |  |  |  | 
2 | Cn1cnnc1[C@H](F)C1(c2cccc(N3Cc4c(cc(CN5[C@@H]6CC[C@H]5C[C@@H](F)C6)cc4C(F)(F)F)C3=O)c2)COC1 [Example 672b, 2-(3-(3-((R)-fluoro(4-methyl-4H-1,2,4-triazol-3-yl)methyl)oxetan-3-yl)phenyl)-6-(((1R,3R,5S)-3-fluoro-8-azabicyclo[3.2.1]octan-8-yl)methyl)-4-(trifluoromethyl)isoindolin-1-one] | ≤ 100 | > 7.5 | > 7.5 | > 0.201 | > 1.76 | > 1.76 | > 1 | < 0.1 |  |  |  |  |  |  |  |  |  |  | 
3 | Cn1cnnc1[C@H]1CC[C@H]1c1cccc(N2Cc3c(cccc3C(F)(F)F)C2=O)c1 (racemic) [Compound 283, cis-2-(3-(2-(4-Methyl-4H-1,2,4-triazol-3-yl)cyclobutyl)phenyl)-4-(trifluoromethyl)isoindolin-1-one] | ≤ 1000 |  |  |  |  |  |  | 0.301 to 1 | < 1 | 1.01 to 2.5 | 1.01 to 2.5 | < 0.05 | 0.101 to 0.15 | < 1 | < 1 | 1.01 to 1.3 | < 0.6 | < 0.6 | 
4 | Cc1nc(C(=O)Nc2cccc([C@H](C)Sc3nncn3C)c2)ccc1Cl [Compound 39, (S)-5-Chloro-6-methyl-N-(3-(1-((4-methyl-4H-1,2,4-triazol-3-yl)thio)ethyl)phenyl)picolinamide] | ≤ 500 |  |  |  |  |  |  | 0.1 to 0.3 | 2.51 to 5 | 5 to 7.5 | > 7.5 | < 0.05 | 0.051 to 0.1 | < 1 | 1.01 to 1.3 | 1.01 to 1.3 | < 0.6 | 0.801 to 1 | 0.301 to 1
5 | C[C@H](Cc1nncn1C)c1cccc(N2Cc3c(cc(-c4ccn[nH]4)cc3C(F)(F)F)C2=O)c1 [Compound 279, (R)-2-(3-(1-(4-methyl-4H-1,2,4-triazol-3-yl)propan-2-yl)phenyl)-6-(1H-pyrazol-5-yl)-4-(trifluoromethyl)isoindolin-1-one] | ≤ 100 |  |  |  |  |  |  | < 0.1 | 2.51 to 5 | 5 to 7.5 | > 7.5 | > 0.201 | > 0.201 | 1.01 to 1.3 | 1.31 to 1.5 | 1.31 to 1.5 | > 1 | > 1 | 
6 | CN1C2CCC1CN(c1cc3c(c(C(F)(F)F)c1)CN(c1cccc([C@@](C)(F)C(F)(F)c4nncn4C)c1)C3=O)C2 [Example 564, 6-(8-Methyl-3,8-diazabicyclo[3.2.1]octan-3-yl)-2-(3-((R)-1,1,2-trifluoro-1-(4-methyl-4H-1,2,4-triazol-3-yl)propan-2-yl)phenyl)-4-(trifluoromethyl)isoindolin-1-one] | ≤ 100 | 1.01 to 2.5 | 2.51 to 5 | 0.101 to 0.15 | 1.01 to 1.3 | 1.31 to 1.5 | 0.801 to 1 | < 0.1 |  |  |  |  |  |  |  |  |  |  | 
7 | Cn1cnnc1CC1(c2cccc(N3Cc4c(cc(N5CC(C(F)(F)F)C5)cc4C(F)(F)F)C3=O)c2)COC1 [Example 600, 2-(3-(3-((4-methyl-4H-1,2,4-triazol-3-yl)methyl)oxetan-3-yl)phenyl)-4-(trifluoromethyl)-6-(3-(trifluoromethyl)azetidin-1-yl)isoindolin-1-one] | ≤ 100 | 2.51 to 5 | > 7.5 | 0.051 to 0.1 | 1.01 to 1.3 | 1.01 to 1.3 | > 1 | < 0.1 |  |  |  |  |  |  |  |  |  |  | 
8 | Cc1cnn2c(C(=O)Nc3cccc(C4(Cc5nncn5C)COC4)c3)cc(C(F)(F)F)nc12 [Example 599, 3-methyl-N-(3-(3-((4-methyl-4H-1,2,4-triazol-3-yl)methyl)oxetan-3-yl)phenyl)-5-(trifluoromethyl)pyrazolo[1,5-a]pyrimidine-7-carboxamide] | ≤ 1000 | < 1 | 1.01 to 2.5 | < 0.05 | 1.01 to 1.3 | 1.01 to 1.3 | 0.601 to 0.8 | 0.301 to 1 |  |  |  |  |  |  |  |  |  |  | 
9 | Cc1ccc(C(=O)Nc2cccc(C(C)Cc3nccn3C)c2)nc1C1CC1 (stereo not drawn) [Compound 214, 6-Cyclopropyl-5-methyl-N-(3-(1-(1-methyl-1H-imidazol-2-yl)propan-2-yl)phenyl)picolinamide] | ≤ 10000 |  |  |  |  |  |  | 1 to 3 | > 7.5 | > 7.5 | > 7.5 | 0.051 to 0.1 | 0.051 to 0.1 | < 1 | < 1 | 1.01 to 1.3 | < 0.6 | < 0.6 | 
10 | CN1CCN(Cc2cc3c(c(C(F)(F)F)c2)CN(c2cccc(C4(Cc5nncn5C)COC4)c2)C3=O)CC1 [Example 625, 2-(3-(3-((4-methyl-4H-1,2,4-triazol-3-yl)methyl)oxetan-3-yl)phenyl)-6-((4-methylpiperazin-1-yl)methyl)-4-(trifluoromethyl)isoindolin-1-one] | ≤ 100 | 2.51 to 5 | > 7.5 | > 0.201 | 1.31 to 1.5 | 1.31 to 1.5 | > 1 | < 0.1 |  |  |  |  |  |  |  |  |  |  | 
11 | Cn1cnnc1CC1(c2cccc(N3Cc4c(cc(CN5CCC(C)(C#N)CC5)cc4C(F)(F)F)C3=O)c2)COC1 [Example 642, 4-methyl-1-((2-(3-(3-((4-methyl-4H-1,2,4-triazol-3-yl)methyl)oxetan-3-yl)phenyl)-3-oxo-7-(trifluoromethyl)isoindolin-5-yl)methyl)piperidine-4-carbonitrile] | ≤ 100 | > 7.5 | > 7.5 | 0.151 to 0.2 | 1.31 to 1.5 | 1.31 to 1.5 | > 1 | < 0.1 |  |  |  |  |  |  |  |  |  |  | 
